# Experimental data: paper PMC8347134, “Preparation of Antiproliferative Terpene-Alkaloid Hybrids by Free Radical-Mediated Modification of ent-Kauranic Derivatives” (Molecules, 2021)
# Where two headings read alike, the source gives them in different places.
# Experiments:
# Assay type in all cases: cell-based
# [1] = system: Z-138 (non-Hodgkin lymphoma); experiment: Cell proliferation assay (IncuCyte); details: for IC50: Homo sapiens, Z-138, 72 h; for SI Z-138: ratio IC50 hTERT RPE-1 / IC50 Z-138
# Protocol: (§1) A parallel cytotoxicity assay was performed on non-cancerous retina cells (hTERT RPE-1) in order to estimate the selectivity of the investigated compounds towards tumor cells. The inhibition of cell proliferation was calculated as IC50 by interpolation based on the semi-log dose response.
# (§2) All cell lines were cultured as recommended by the suppliers. Culture media were purchased from Gibco Life Technologies, USA, and supplemented with 10% fetal bovine serum (HyClone, GE Healthcare Life Sciences, Logan, UT, USA). […] All stock solutions were prepared in DMSO.
# (§3) After overnight incubation, cells were treated with the test compounds at seven different concentrations ranging from 100 to 6.4 × 10^−3 µM. […] The plates were incubated at 37 °C and monitored for 72 h in an IncuCyte® device (Essen BioScience Inc., Ann Arbor, MI, USA) for real-time imaging. Images were taken every 3 h, with one field imaged per well under 10× magnification. Cell growth was then quantified based on the percent cellular confluence as analysed by the IncuCyte® image analysis software and used to calculate IC50 values by linear interpolation. All tests have been performed in duplicate and the average values have been calculated.
# [2] = system: HCT-116 (colorectal carcinoma); experiment: Cell proliferation assay (IncuCyte); details: for IC50: Homo sapiens, HCT-116, 72 h; for SI HCT-116: ratio IC50 hTERT RPE-1 / IC50 HCT-116
# Protocol: as §1, §2, §3
# [3] = system: NCI-H460 (lung carcinoma); experiment: Cell proliferation assay (IncuCyte); details: for IC50: Homo sapiens, NCI-H460, 72 h; for SI NCI-H460: ratio IC50 hTERT RPE-1 / IC50 NCI-H460
# Protocol: as §1, §2, §3
# [4] = system: Capan-1 (pancreatic adenocarcinoma); experiment: Cell proliferation assay (IncuCyte); details: for IC50: Homo sapiens, CAPAN-1, 72 h; for SI Capan-1: ratio IC50 hTERT RPE-1 / IC50 Capan-1
# Protocol: as §1, §2, §3
# [5] = system: DND-41 (acute lymphoblastic leukemia); experiment: Cell proliferation assay (IncuCyte); details: for IC50: DND41, 72 h; for SI DND-41: ratio IC50 hTERT RPE-1 / IC50 DND-41
# Protocol: as §1, §2, §3
# [6] = system: K-562 (chronic myeloid leukemia); experiment: Cell proliferation assay (IncuCyte); details: for IC50: Homo sapiens, K562, 72 h
# Protocol: as §1, §2, §3
# [7] = system: HL-60 (acute myeloid leukemia); experiment: Cell proliferation assay (IncuCyte); details: for IC50: Homo sapiens, HL-60, 72 h; for SI HL-60: ratio IC50 hTERT RPE-1 / IC50 HL-60
# Protocol: as §1, §2, §3
# hTERT RPE-1 = experiment: Parallel cytotoxicity assay on non-cancerous retina cells
# Protocol: as §1, §2, §3
# [8] = system: seven different tumor cell lines; experiment: Proliferation assays, best value over the seven tumor cell lines; details: for SImax: highest selectivity index over the tumor cell lines (Figure 4); for IC50 for retina (hTERT RPE-1) cells fold higher than for cancerous cells: highest selectivity indices
# Protocol: as §1, §2, §3
# [9] = hTERT-RPE1, 72 h, duplicate, mean ± deviation
# [10] = lowest IC50 over the tumor cell lines (Figure 4), read-out: IC50 min
SMILES,"IC50 ([1]; duplicate, mean ± deviation)",SI Z-138 [1],"IC50 ([2]; duplicate, mean ± deviation)",SI HCT-116 [2],"IC50 ([3]; duplicate, mean ± deviation)","IC50 ([4]; duplicate, mean ± deviation)","IC50 ([5]; duplicate, mean ± deviation)","IC50 ([6]; duplicate, mean ± deviation)","IC50 ([7]; duplicate, mean ± deviation)",IC50 (hTERT RPE-1; [9]),SI NCI-H460 [3],SI Capan-1 [4],SI DND-41 [5],SImax [8],"IC50 [8, 10]",IC50 for retina (hTERT RPE-1) cells fold higher than for cancerous cells [8],further results
COC(=O)[C@]1(C)CCC[C@@]2(C)[C@@H]3CC[C@@H]4C[C@@]3(CC[C@@H]21)C[C@@]4(CCC(=O)O)N=[N+]=[N-] [Compound 14],22.7 µM,1.2,5.8 ± 0.1 µM,4.5,31.1 ± 1.6 µM,44.5 ± 8.3 µM,44.5 ± 4.8 µM,41 µM,46.2 ± 9.1 µM,26.2 ± 0.9 µM,–,–,–,–,–,–,–
"CC(=O)O[C@@]12CO[C@@H]1C[C@H](O)[C@@]1(C)C(=O)[C@H](O)C3=C(C)[C@@H](OC(=O)[C@H](O)[C@@H](NC(=O)OC(C)(C)C)c4ccccc4)C[C@@](O)([C@@H](OC(=O)c4ccccc4)[C@H]21)C3(C)C [DT, docetaxel, reference compound]",–,–,–,–,–,–,–,–,–,–,–,–,–,–,–,–,"IC50 ([1]; positive controls): 0.0037 ± 0.0007 µM; IC50 ([2]; positive controls): 0.0022 ± 0.0008 µM; IC50 ([3]; positive controls): 0.0055 ± 0.0013 µM; IC50 ([4]; positive controls): 0.0042 ± 0.0018 µM; IC50 ([5]; positive controls): 0.0047 ± 0.0012 µM; IC50 ([6]; positive controls): 0.0052 ± 0.0012 µM; IC50 ([7]; positive controls): 0.0043 ± 0.0016 µM; IC50 (hTERT RPE-1; hTERT-RPE1, positive controls, 72 h): 0.0187 ± 0.0048 µM"
"CN[C@@H]1C[C@H]2O[C@@](C)([C@@H]1OC)n1c3ccccc3c3c4c(c5c6ccccc6n2c5c31)C(=O)NC4 [SP, staurosporine, reference compound]",–,–,–,–,–,–,–,–,–,–,–,–,–,–,–,–,IC50 ([3]; positive controls): 0.0022 ± 0.0008 µM; IC50 ([5]; positive controls): 0.0086 ± 0.0015 µM; IC50 ([6]; positive controls): 0.0279 ± 0.0032 µM; IC50 ([7]; positive controls): 0.0091 ± 0.0016 µM
COC(=O)C1(C)CCCC2(C)C3CCC4CC3(C=C4CCC#N)CCC12 (stereo not drawn) [Compound 16],22.1 ± 11.4 µM,1.7,19 ± 5.7 µM,2.0,15.4 ± 6 µM,18.1 ± 3.4 µM,7.8 ± 1 µM,58.4 ± 2.5 µM,33.6 ± 2.6 µM,38.2 ± 5.1 µM,2.5,2.1,4.9,4.9,7.8 ± 1 µM,–,SI HL-60 [7]: 1.1
COC(=O)C1(C)CCCC2(C)C1CCC13CC(CCC21)C(CCC(=O)O)(N=[N+]=[N-])C3O (stereo not drawn) [Compound 24],25.2 ± 0.3 µM,1.3,18.8 ± 8 µM,1.7,41.8 ± 5.3 µM,33.2 ± 7.6 µM,38.9 ± 4.1 µM,76.3 ± 1.4 µM,49.3 ± 5 µM,31.7 ± 3.1 µM,–,–,–,–,–,–,–
CCOC(=O)CC[C@@]1(N=[N+]=[N-])C[C@@]23CC[C@H]4[C@@](C)(CCC[C@@]4(C)C(=O)OC)[C@@H]2CC[C@@H]1C3 [Compound 11],0.5 ± 0.2 µM,3.6,1 ± 0.4 µM,1.8,1.3 ± 0.1 µM,1.7 ± 0.5 µM,1.4 ± 0.3 µM,8.8 ± 2.2 µM,3 ± 1.4 µM,1.8 ± 0.4 µM,1.4,1.1,1.3,3.6,0.5 ± 0.2 µM,up to 43 fold,–
COC(=O)C1(C)CCCC2(C)C1CCC13CC(CCC21)C1(CCC(=O)N1)C3O (stereo not drawn) [Compound 27],39.8 ± 10.9 µM,–,4 ± 3.7 µM,6.9,1.9 ± 0.2 µM,3.7 ± 1.7 µM,8.3 ± 2 µM,56.5 ± 2.8 µM,38 ± 11.8 µM,27.7 ± 4.3 µM,14.6,7.5,3.3,14.6,1.9 ± 0.2 µM,up to 43 fold,–
CCOC(=O)CCC1=C[C@@]23CC[C@H]4[C@@](C)(CCC[C@@]4(C)C(=O)OC)[C@@H]2CC[C@@H]1C3 [Compound 7],27.6 ± 15.5 µM,1.1,30.7 ± 16.4 µM,–,12 ± 1.5 µM,37.1 ± 3.9 µM,36.5 ± 0.7 µM,24.7 ± 11.8 µM,19.6 ± 7.7 µM,29.2 ± 1.2 µM,2.4,–,–,–,–,–,SI K-562 ([6]; ratio IC50 hTERT RPE-1 / IC50 K-562): 1.2; SI HL-60 [7]: 1.5
COC(=O)CCC1(N=[N+]=[N-])C2CCC3C4(C)CCCC(C)(C(=O)OC)C4CCC3(C2)C1O (stereo not drawn) [Compound 26],21.6 ± 5.4 µM,1.2,9.9 ± 2.7 µM,2.6,0.6 ± 0.2 µM,8.3 ± 1.1 µM,6.6 ± 1.3 µM,36.9 ± 0.2 µM,41.1 ± 15.9 µM,25.9 ± 0.3 µM,43.2,3.1,3.9,43.2,0.6 ± 0.2 µM,up to 43 fold,–
CC1(C(=O)O)CCCC2(C)C1CCC13CC(CCC21)C(CCC#N)(N=[N+]=[N-])C3O (stereo not drawn) [Compound 25],52 ± 17.4 µM,–,34.4 ± 0.5 µM,–,34 ± 2.9 µM,6.4 ± 1.5 µM,36.4 ± 9.8 µM,> 100 µM,> 100 µM,33.6 ± 4.5 µM,–,5.3,–,5.3,6.4 ± 1.5 µM,–,–
COC(=O)[C@]1(C)CCC[C@@]2(C)[C@@H]3CC[C@@H]4C[C@@]3(CC[C@@H]21)[C@H]1OC(=O)CC=C41 [Compound 22],2.4 ± 1.1 µM,–,0.5 ± 0.2 µM,2.8,1.4 ± 0.3 µM,1.3 ± 0.6 µM,2.3 ± 0.3 µM,2.5 ± 0.1 µM,3.7 ± 1.3 µM,1.4 ± 0.1 µM,1,1.1,–,–,–,–,"IC50 ([8]; tumor cell lines, read-out: IC50 values): < 1 µM"
COC(=O)C1(C)CCCC2(C)C3CCC4CC3(CCC12)CC41CCC(=O)N1 (stereo not drawn) [Compound 12],52 ± 33.4 µM,–,0.8 ± 0.2 µM,9.5,1.4 ± 0.1 µM,1.2 ± 0.7 µM,21.4 ± 10.1 µM,36.4 ± 11.5 µM,38.3 ± 17.8 µM,7.6 ± 0.5 µM,5.4,6.3,–,9.5,0.8 ± 0.2 µM,up to 43 fold,–
